{"source": "paper PMC5459304", "about": "(International journal of toxicology, 2017)", "origin": "cited, not measured here", "test_system": "patients"}
{"smiles": "CC1(C)C(/C=C/C=C/C=C/C=C2\\N(CCCCS(=O)(=O)O)c3ccc4ccccc4c3C2(C)C)=[N+](CCCCS(=O)(=O)[O-])c2ccc3ccccc3c21", "note": "[ICG, indocyanine green]", "values": [{"measurement": "severe reaction rate", "setting": "1 severe reaction among 1226 patients", "result": 0.05, "unit": "%"}, {"measurement": "number of reactions", "setting": "1226 patients", "result": "7 reactions out of 1923 ICG angiograms"}, {"measurement": "adverse reaction rate", "setting": "1923 ICG angiograms in 1226 patients", "result": 0.3, "unit": "%"}, {"measurement": "number of severe reactions", "setting": "ICG angiograms from Japanese ophthalmologists", "result": "2 severe reactions among 2820 patients"}]}
